Type in all cases: in vivo
Test [1] deals with Green Peach Aphid (Myzus persicae, MYZUPE). The test is described as follows: Bioassay 1: Green Peach Aphid, cabbage seedling foliar spray. Particulars: 3 days after treatment. As to the method:
The stock solutions were prepared with Formula One as well as for each of the active ingredients individually. Test solutions were prepared from the stock solutions. Test solutions were prepared containing Formula One, the individual active ingredients, and mixtures of Formula One with each of the active ingredients. The test solutions for Formula One and the individual active ingredients were prepared by adding 750 microliters (μL) of stock solution to a 25 mL glass vial, then adding 750 μL of 1:1 acetone:methanol solvent, followed by the addition of 13.5 mL water with 0.025% Tween® 20 to create a 0.0005% (weight/volume (w/v)) solution. The test solutions containing mixtures of Formula One and the individual active ingredients were prepared by adding 750 μL of the active ingredient stock solution to a 25 mL glass vial, followed by 750 μL of the Formula One stock solution, then by the addition of 13.5 mL water with 0.025% Tween® 20 to create a test solution containing 0.0005% (w/v) Formula One and 0.0005% (w/v) of the active ingredient. Each test solution was serially diluted to create desired doses of test solutions (0.0005% (w/v), 0.000125% (w/v), 0.00003125% (w/v), 0.0000078% (w/v), 0.00000195% (w/v), and 0.0000005% (w/v)).
The test solutions were tested against GPA using the following procedure: Cabbage seedlings, grown in 3 inch pots with 2-3 small (3-5 centimeter (cm)) true leaves, were used as test substrate. The seedlings were infested with 20-50 GPA (wingless adult and nymph stages) one day prior to chemical application. Four pots with individual seedlings were used for each treatment. A hand-held aspirator-type sprayer was used for spraying a solution to both sides of […] leaves until runoff. Reference plants (solvent check) were sprayed with the diluent only (0.025% Tween® 20 and 10% acetone:methanol (1:1) in water). Treated plants were held in a holding room for three days at approximately 25° C. and ambient relative humidity (RH about 20% to about 45%) prior to grading. Evaluation was conducted by counting the number of live aphids per plant under a microscope three days after treatment. Percent control was measured using Abbott's correction formula (W. S. Abbott, J. Econ. Entomol. 18 (1925), pp. 265-267) as follows:
(§1) Corrected % Control=(1−(Y/X))*100
where X=No. of live aphids on solvent check plants and Y=No. of live aphids on treated plants. In Table B1 the “Expected % Control” was calculated using the method described in Colby S. R., Weeds, 1967, 15, 20-22. Bioassay 2: Sweet Potato Whitefly (Bemisia tabaci, BEMITA) (“SPW”).

Test [2] relates to Neotropical Brown Stink Bug (Euschistus heros, EUSCHE). The test is described as follows: Bioassay 5: Neotropical Brown Stink Bug, soaked green bean segments. The settings on record: 72 h; for pest or weed control at 0.000156 % / pest or weed control at 0.0025 %: read-out: Average % Control AI; for pest or weed control at 0.000625 %: AI alone 0.000625 % (w/v). On the procedure: Stock solutions were prepared with Formula One as well as for each of the active ingredients individually. Test solutions were prepared from the stock solutions. Test solutions were prepared containing Formula One, the individual active ingredients, and mixtures of Formula One with each of the active ingredients. The test solution for Formula One was prepared by adding 500 μL of the stock solution to a 25 mL glass vial, then adding 500 μL of acetone, followed by the addition of 9 mL water with 0.025% Tween® 20 to create a 0.04% (w/v) solution. The individual active ingredients were prepared by adding 500 μL of stock solution to a 25 mL glass vial, then adding 500 μL of acetone, followed by the addition of 9 mL water with 0.025% Tween® 20 to create a 0.005% (w/v) solution. The test solutions containing mixtures of Formula One and the individual active ingredients were prepared by adding 500 μL of the active ingredient stock solution to a 25 mL glass vial, followed by 500 μL of the Formula One stock solution, then by the addition of 9 mL water with 0.025% Tween® 20 to create a test solution containing 0.04% (w/v) Formula One and 0.005% (w/v) of the active ingredient. Each test solution was serially diluted to create desired doses of test solutions (0.01% (w/v), 0.0025% (w/v), 0.000625% (w/v), 0.000156% (w/v), and 0.000039% (w/v)). In test solutions containing mixtures of Formula One and the active ingredients, the active ingredients were diluted as described above, but the Concentration of Formula One was held constant (0.04% (w/v)).
The test solutions that were tested against BSB were similar to those described above for WTPB. Fresh green beans were cut into segments approximately 1.5 inches long. Four bean segments were added to each test solution and soaked for approximately 15 minutes. After soaking, a single bean fragment was removed and placed into a single well of a 32-well rearing tray (Frontier Agricultural Sciences™), on top of a round filter paper disc. A reference treatment (solvent check) was treated with the diluent only. Each treatment was replicated four times and the test treatments were held at approximately 26° C. and ambient relative humidity (RH) prior to grading. Bean segments were allowed to air dry for ˜30 minutes. Three BSB nymphs were added to and contained in each well with a clear perforated adhesive lid. The total number of living BSB nymphs was recorded 3 days after application. Scoring was based off the total number of living nymphs out of all four replicates. Percent control was measured using Abbott's correction formula (W. S. Abbott, J. Econ. Entomol. 18 (1925), pp. 265-267) as follows:
as §1
where X=No. of live nymphs on solvent check and Y=No. of live nymphs on treated bean segments. In Table B5 the “Expected % Control” was calculated using the method described in Colby S. R., Weeds, 1967, 15, 20-22. Bioassay 6: Beet Armyworm (Spodoptera exigua, LAPHEG) (BAW), and Diamondback Moth (Plutella xylostella, PLUTMA) (DBM).

Test [3] has as its system Western Flower Thrips (Frankliniella occidentalis, FRANOC). Kind of test: Bioassay 3: Western Flower Thrips, cotton leaf disc dip. Particulars: foliar, 72 h; for pest or weed control at 0.0003125 %: AI alone 0.0003125 % (w/v); for pest or weed control at 7.8e-05 %: read-out: Average % Control AI; for pest or weed control at 0.005 %: AI alone 0.005 % (w/v). On the procedure:
Stock solutions of Formula One and various active ingredients were prepared initially at a concentration of 8 mg/mL for Formula One and 1 mg/mL for the active ingredients, respectively, using acetone as a diluent. Stock solutions were prepared with Formula One as well as for each of the active ingredients individually. Test solutions were prepared from the stock solutions. Test solutions were prepared containing Formula One, the individual active ingredients, and mixtures of Formula One with each of the active ingredients. The test solution for Formula One was prepared by adding 500 μL of the stock solution to a 25 mL glass vial, then adding 500 μL of acetone, followed by the addition of 9 mL water with 0.025% Tween® 20 to create a 0.04% (w/v) solution. The test solutions of the individual active ingredients were prepared by adding 500 μL of stock solution to a 25 mL glass vial, then adding 500 μL of acetone, followed by the addition of 9 mL water with 0.025% Tween® 20 to create a 0.005% (w/v) solution. The test solutions containing mixtures of Formula One and the individual active ingredients were prepared by adding 500 μL of the active ingredient stock solution to a 25 mL glass vial, followed by 500 μL of the Formula One stock solution, then by the addition of 9 mL water with 0.025% Tween® 20 to create a test solution containing 0.04% (w/v) Formula One and 0.005% (w/v) of the active ingredient. Each test solution was serially diluted to create desired doses of test solutions (0.005% (w/v), 0.00125% (w/v), 0.0003125% (w/v), 0.000078% (w/v), and 0.0000195% (w/v)). In test solutions containing mixtures of Formula One and the active ingredients, the active ingredients were diluted as described above, but the Concentration of Formula One was held constant (0.04% (w/v)).
The test solutions were tested against WFT using the following procedure: Leaf discs (2.7 cm in diameter) were cut from the true leaves of cotton plants. Leaf discs were dipped into the test solutions and shaken to ensure complete coverage of the leaf disc and then placed in Millipore® PetriSlides containing a filter paper disc. Treated leaf discs were air dried for approximately 1 hour. Each leaf disc was infested with 5 WFT (9-10 day old nymphs) by placement on each leaf disc, and the PetriSlides were capped to prevent escape. Each treatment was replicated three times and the test treatments were held at approximately 26° C. and ambient relative humidity (RH) prior to grading. Reference discs (solvent check) were treated with the diluent only. Evaluation was conducted by counting the number of live WFT under magnification 3 days after treatment. Percent control was measured using Abbott's correction formula (W. S. Abbott, J. Econ. Entomol. 18 (1925), pp. 265-267) as follows:
as §1
where X=No. of live nymphs on solvent check leaf discs and Y=No. of live nymphs on treated leaf discs. In Table B3 the “Expected % Control” was calculated using the method described in Colby S. R., Weeds, 1967, 15, 20-22. Bioassay 4: Western Tarnished Plant Bug (Lygus hesperus, LYGUHE) (“WTPB”).

The mark [4] stands for this setting: AI alone 0.000156 % (w/v), soaked bean segments, 3 days after application.
The mark [5] stands for this setting: cotton leaf disc dip, 3 days after treatment.
Setting [6] is: soaked bean segments, 3 days after application.
Setting [7] is: AI alone 0.0025 % (w/v), soaked bean segments, 3 days after application.
[8] abbreviates: AI alone 0.000078 % (w/v), cotton leaf disc dip, 3 days after treatment.

Results on 17 molecules are retold here after patent US20230189807A1, “COMPOSITIONS HAVING PESTICIDAL UTILITY AND PROCESSES RELATED THERETO” (priority 2020, published 2023).

Where two headings read alike, the source gives them in different places.

Take `Cc1c(COC(=O)[C@@H]2[C@H](/C=C(\Cl)C(F)(F)F)C2(C)C)cccc1-c1ccccc1` (racemic) [Bifenthrin]: the “Average % Control A1” value in test [1] (AI alone 0.78x10^-5 % (w/v)) is 52%. Moreover, the pest or weed control at 0.000156 % in test [2] (setting [4]) stood at 30%. For the molecule `CC1(C)[C@H](C(=O)O[C@H](C#N)c2cccc(Oc3ccccc3)c2)[C@@H]1/C=C(\Cl)C(F)(F)F` (racemic) [Lambda Cyhalothrin], the “Average % Control A1” value in test [1] (AI alone 0.78x10^-5 % (w/v)) is 40%. Moreover, the pest or weed control at 0.0003125 % in test [3] (setting [5]) amounted to 7%. Moreover, in test [2] (setting [6]), the pest or weed control at 0.000625 % turned out to be 8%. With `COP(=O)(NC(C)=O)SC` (stereo not shown) [Acephate], the pest or weed control at 7.8e-05 % in test [3] is 5%. The pest or weed control at 0.0025 % in test [2] was found to be 0%. As for `C/C(=N\C#N)N(C)Cc1ccc(Cl)nc1` [Acetamiprid], in test [1] (AI alone 0.78x10^-5 % (w/v)), the “Average % Control A1” value was 24%. The pest or weed control at 0.0003125 % in test [3] (setting [5]) came out at 13%. For the molecule `CNC(=O)c1cc(Cl)cc(C)c1NC(=O)c1cc(Br)nn1-c1ncccc1Cl` [Chlorantraniliprole], the pest or weed control at 0.005 % in test [3] (setting [5]) was 7%.

Molecule `CCOCn1c(-c2ccc(Cl)cc2)c(C#N)c(Br)c1C(F)(F)F` [Chlorfenapyr] registered a pest or weed control at 0.005 % in test [3] (setting [5]) of 57%. Besides, the pest or weed control at 0.0025 % in test [2] (setting [7]) is 8%. On to `CN/C(=N/CC1CCOC1)N[N+](=O)[O-]` (stereo not shown) [Dinotefuran], for which the pest or weed control at 0.000156 % in test [2] was found to be 17%. Turning to `CC[S+]([O-])c1c(C#N)nn(-c2c(Cl)cc(C(F)(F)F)cc2Cl)c1N` (stereo not shown) [Ethiprole], in test [1] (AI alone 3.125x10^-5 % (w/v)), the “Average % Control A1” value came to 0%. The molecule further showed a pest or weed control at 0.005 % in test [3] (setting [5]) of 0%. This molecule showed a pest or weed control at 3.91e-05 % in test [2] (AI alone 0.0000391 % (w/v), soaked bean segments, 3 days after application) of 0%. Regarding `CON=CNC(=O)c1ccc(C2=NOC(c3cc(Cl)cc(Cl)c3)(C(F)(F)F)C2)cc1C` (stereo not shown) [Fluxametamide], in test [1] (AI alone 12.5x10^-5 % (w/v)), the “Average % Control A1” value was found to be 0%.

`O=[N+]([O-])NC1=NCCN1Cc1ccc(Cl)nc1` [Imidacloprid] came in with a pest or weed control at 0.0003125 % in test [3] (setting [5]) of 0%. The same molecule displayed a pest or weed control at 0.000625 % in test [2] (setting [6]) of 17%.

Take `COc1cccc(C(=O)NN(C(=O)c2cc(C)cc(C)c2)C(C)(C)C)c1C` [Methoxyfenozide]: the “Average % Control A1” value in test [1] (AI alone 0.195x10^-5 % (w/v)) was 5%.

`CNC(=O)O/N=C(\SC)C(=O)N(C)C` [Oxamyl]: the pest or weed control at 0.0003125 % in test [3] (setting [5]) was 0%.

For `CC(COc1ccc(Oc2ccccc2)cc1)Oc1ccccn1` (stereo not shown) [Pyriproxyfen], the pest or weed control at 0.00125 % in test [3] (AI alone 0.00125 % (w/v), cotton leaf disc dip, 3 days after treatment) came to 17%. `CCOC(=O)OC1=C(c2cc(C)ccc2C)C(=O)N[C@]12CC[C@@H](OC)CC2` [Spirotetramat]: the “Average % Control A1” value in test [1] (AI alone 0.05x10^-5 % (w/v)) is 15%. In addition, in test [3] (setting [8]), the pest or weed control at 7.8e-05 % stood at 7%. As to `CC(c1ccc(C(F)(F)F)nc1)S(C)(=O)=NC#N` (stereo not shown) [Sulfoxaflor], the pest or weed control at 0.0025 % in test [2] (setting [7]) was found to be 58%.

Take `CN1COCN(Cc2cnc(Cl)s2)/C1=N\[N+](=O)[O-]` [Thiamethoxam]: the pest or weed control at 7.8e-05 % in test [3] (setting [8]) was 7%. In test [2] (setting [4]), the pest or weed control at 0.000156 % worked out at 17%. As to Emamectin Benzoate, the “Average % Control A1” value in test [1] (AI alone 3.125x10^-5 % (w/v)) was determined as 21%.
